#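 Five compound concentrations were applied to cells in 96-well plates for 48 hours; endpoints were derived by simple linear interpolation of the resulting dose-response curve. The concentration for 50% growth inhibition is given as GI50. TGI: total growth inhibition.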
# How the values were obtained:
# Test in all cases: inhibition of tumour cell growth, NCI panel, 48 h
# [1] = system: 786-0 renal
# [2] = system: A498 renal
# [3] = system: A549 NSCLC
# [4] = system: BT-549 breast
# [5] = system: CAKI-1 renal
# [6] = system: CCRF-CEM leukemia
# [7] = system: COLO 205 colon
# [8] = system: DU-145 prostate
# [9] = system: EKVX NSCLC
# [10] = system: HCC-2998 colon
# [11] = system: HCT-116 colon
# [12] = system: HCT-15 colon
# [13] = system: HL-60(TB) leukemia
# [14] = system: HOP-62 NSCLC
# [15] = system: HOP-92 NSCLC
# [16] = system: HS 578T breast
# [17] = system: HT29 colon
# [18] = system: IGROV1 ovarian
# [19] = system: K-562 leukemia
# [20] = system: KM12 colon
# [21] = system: LOX IMVI melanoma
# [22] = system: M14 melanoma
# [23] = system: MALME-3M melanoma
# [24] = system: MCF7 breast
# [25] = system: MDA-MB-231 breast
# [26] = system: MDA-MB-435
# [27] = system: MOLT-4 leukemia
# [28] = system: NCI-H226 lung
# [29] = system: NCI-H23 lung
# [30] = system: NCI-H460 lung
# [31] = system: NCI-H522 lung
# [32] = system: NCI/ADR-RES ovarian
# [33] = system: OVCAR-3 ovarian
# [34] = system: OVCAR-5 ovarian
# [35] = system: OVCAR-8 ovarian
# [36] = system: PC-3 prostate
# [37] = system: RPMI-8226 leukemia
# [38] = system: RXF 393 renal
# [39] = system: SF-268 CNS
# [40] = system: SF-295 CNS
# [41] = system: SF-539 CNS
# [42] = system: SK-MEL-2 melanoma
# [43] = system: SK-MEL-28 melanoma
# [44] = system: SK-OV-3 ovarian
# [45] = system: SN12C renal
# [46] = system: SNB-19 CNS
# [47] = system: SNB-75 CNS
# [48] = system: SR leukemia
# [49] = system: SW-620 colon
# [50] = system: T-47D breast
# [51] = system: TK-10 renal
# [52] = system: U251 CNS
# [53] = system: UACC-257 melanoma
# [54] = system: UACC-62 melanoma
# [55] = system: UO-31 renal
smiles,measurement,setting,value
COc1ccc2[nH]c(O)c(/C=c3/ccc4c(c3)N=C(c3ccc(F)cc3)N=4)c2c1,GI50,[1],1.69 µM
same,TGI,[1],3.26 µM
same,GI50,[2],1.46 µM
same,TGI,[2],4.28 µM
same,GI50,[3],3.11 µM
same,TGI,[3],> 100 µM
same,GI50,[4],1.75 µM
same,TGI,[4],4.75 µM
same,GI50,[5],7.12 µM
same,TGI,[5],> 100 µM
same,GI50,[6],4.14 µM
same,TGI,[6],> 100 µM
same,GI50,[7],5.13 µM
same,TGI,[7],> 100 µM
same,GI50,[8],2.23 µM
same,TGI,[8],6.87 µM
same,GI50,[9],14 µM
same,TGI,[9],> 100 µM
same,GI50,[10],> 100 µM
same,TGI,[10],> 100 µM
same,GI50,[11],1.63 µM
same,TGI,[11],3.37 µM
same,GI50,[12],5.83 µM
same,TGI,[12],> 100 µM
same,GI50,[13],28.3 µM
same,TGI,[13],> 100 µM
same,GI50,[14],1.93 µM
same,TGI,[14],3.91 µM
same,GI50,[15],2.06 µM
same,TGI,[15],8.75 µM
same,GI50,[16],2.73 µM
same,TGI,[16],9.4 µM
same,GI50,[17],3.62 µM
same,TGI,[17],16.8 µM
same,GI50,[18],3.27 µM
same,TGI,[18],17.9 µM
same,GI50,[19],9.14 µM
same,TGI,[19],> 100 µM
same,GI50,[20],4.54 µM
same,TGI,[20],77.9 µM
same,GI50,[21],2.92 µM
same,TGI,[21],> 100 µM
same,GI50,[22],2.66 µM
same,TGI,[22],11.1 µM
same,GI50,[23],2.58 µM
same,TGI,[23],6.32 µM
same,GI50,[24],4.53 µM
same,TGI,[24],93.3 µM
same,GI50,[25],2.25 µM
same,TGI,[25],6.04 µM
same,GI50,[26],3.2 µM
same,TGI,[26],40 µM
same,GI50,[27],13.9 µM
same,TGI,[27],> 100 µM
same,GI50,[28],2.5 µM
same,TGI,[28],6.33 µM
same,GI50,[29],3.14 µM
same,TGI,[29],28.1 µM
same,GI50,[30],3.35 µM
same,TGI,[30],12.3 µM
same,GI50,[31],2.79 µM
same,TGI,[31],8.09 µM
same,GI50,[32],3.78 µM
same,TGI,[32],24.4 µM
same,GI50,[33],3.25 µM
same,TGI,[33],11.4 µM
same,GI50,[34],7.1 µM
same,TGI,[34],97.9 µM
same,GI50,[35],2.07 µM
same,TGI,[35],5.32 µM
same,GI50,[36],4.64 µM
same,TGI,[36],88.6 µM
same,GI50,[37],3.01 µM
same,TGI,[37],> 100 µM
same,GI50,[38],1.95 µM
same,TGI,[38],4.06 µM
same,GI50,[39],3.76 µM
same,TGI,[39],22.7 µM
same,GI50,[40],7.33 µM
same,TGI,[40],> 100 µM
same,GI50,[41],3.83 µM
same,TGI,[41],23.7 µM
same,GI50,[42],5.72 µM
same,TGI,[42],44.8 µM
same,GI50,[43],4.34 µM
same,TGI,[43],28.8 µM
same,GI50,[44],2.62 µM
same,TGI,[44],6.06 µM
same,GI50,[45],4.88 µM
same,TGI,[45],> 100 µM
same,GI50,[46],9.47 µM
same,TGI,[46],> 100 µM
same,GI50,[47],1.55 µM
same,TGI,[47],3.6 µM
same,GI50,[48],4.95 µM
same,TGI,[48],> 100 µM
same,GI50,[49],4.34 µM
same,TGI,[49],> 100 µM
same,GI50,[50],2.01 µM
same,TGI,[50],4.99 µM
same,GI50,[51],3.01 µM
same,TGI,[51],7.12 µM
same,GI50,[52],3.65 µM
same,TGI,[52],30.8 µM
same,GI50,[53],3.92 µM
same,TGI,[53],15.3 µM
same,GI50,[54],6.11 µM
same,TGI,[54],> 100 µM
same,GI50,[55],1.95 µM
same,TGI,[55],5.01 µM

# Reference: PubChem BioAssay (NCI)
